Assay [1] has as its target T1, α4β2 neuronal nicotinic acetylcholine receptors (Rattus norvegicus, UniProt P09483+P12390).
T1 construct: The brain tissue was homogenized with a Tekmar Polytron; from tissue; host or cells: rat brain membranes (whole brain without cortex and cerebellum)
Put plainly: Inhibition of [^3H]nicotine (NIC) binding to rat brain membranes. The settings on record: % inhibition at 100 nM analog; 3 nM [^3H]NIC; nonspecific 10 μM cytisine; 3-4 independent experiments. The method, then: (§1) Rat brain was dissected into the whole brain tissue without cortex and cerebellum and was frozen in liquid nitrogen and stored at −70° C. until use. The brain tissue was homogenized with a Tekmar Polytron (setting 40) in 20 volumes of ice-cold hypotonic buffer (2 mM HEPES, 14.4 mM NaCl, 0.15 mM KCl, 0.2 mM CaCl2 and […], pH=7.5). The homogenate was centrifuged at 25,000×g for 17 minutes at 4° C. The pellet was resuspended in 20 volumes of the same buffer, and incubated for 10 min at 37° C. The resuspension was cooled to 4° C. and then centrifuged at the above parameters. The pellet was resuspended by sonicaton and centrifuged using the same conditions. The final pellet was stored at −20° C. under 10 ml of the incubation buffer and was suspended just before incubation with radioligand.
(§2) The binding of [^3H]NIC and [^3H]MLA to probe α4β2 and α7-type neuronal nicotinic acetylcholine receptors, respectively, was determined using [^3H]NIC (67 Ci/mmol) and [^3H]MLA (60 Ci/mmol), purchased from Perkin Elmer Life Sciences, Boston, Mass., U.S.A. and American Radiolabel Chemicals, Inc., St. Louis, Mo., U.S.A. Binding was performed in duplicate, in a final volume of 250 μl of the incubation medium, containing 20 mM HEPES, 144 mM NaCl, 1.5 mM KCl, 2 mM CaCl2, and 1 mM MgSO4, pH=7.5. Reaction was initiated by the addition of 100 μL of membrane suspension to the samples containing a desired concentration of test compounds and 3 nM [^3H]NIC or 3 nM [^3H]MLA (final concentrations) and incubated for 60 min at room temperature. Total binding was measured in the absence of unlabelled ligand and nonspecific binding was determined in the presence of 10 μM cytisine, for [^3H]NIC binding, and 10 μM nicotine for [^3H]MLA. The binding reaction was terminated by dilution of samples with 3 mL of ice-cold incubation buffer followed by immediate filtration through Unifilter-96 GFB-filter plates presoaked in 0.5% polyethylenimine using a Filtermate Harvester (Perkin Elmer, Shelton, Conn., U.S.A.). Filters were rinsed five times with 350 μL of ice-cold buffer, and then filter plates were dried at 48° C. for 60 min, bottom sealed and each well filled with 40 μL of Packard Microscint-20 cocktail. After 60 min of gentle shaking, the filter plates were top sealed and radioactivity measured using a Packard TopCount NXT scintillation counter. CPMs were processed through a Packard Windows NT operating system. Protein was measured using the Bradford dye-binding procedure with bovine serum albumin as the standard.
(§3) The ability of a probe concentration of 100 nM of the tetrakis-quaternary ammonium salts to inhibit specific binding was evaluated.
(§4) ^aData are % inhibition at 100 nM concentration of analog for 3-4 independent experiments. Specific binding in the [^3H]NIC binding assay is calculated as the difference between the total binding of 3 nM [^3H]NIC and nonspecific binding in the presence of 10 μM cytisine. Specific binding for the [^3H]MLA binding assay is calculated as the difference between the total binding of 3 nM [^3H]MLA to the receptors alone and its nonspecific binding in the presence of 10 μM nicotine. Analog-induced inhibition of nicotine-evoked [^3H]DA release is calculated as a percent of that in the absence of analog.

The target in assay [2] is T2, α7-type neuronal nicotinic acetylcholine receptors (Rattus norvegicus, UniProt Q05941).
T2 construct: The brain tissue was homogenized with a Tekmar Polytron; from tissue; host or cells: rat brain membranes (whole brain without cortex and cerebellum)
The assay is described as follows: Inhibition of [^3H]methyllycaconitine (MLA) binding to rat brain membranes. The settings on record: % inhibition at 100 nM analog; 3 nM [^3H]MLA; nonspecific 10 μM nicotine; 3-4 independent experiments. The method, then:
as §1, §2, §3, §4

Assay [3] has as its system rat striatal slices. Put plainly: Nicotine-evoked [^3H]dopamine release (overflow) from superfused rat striatal slices. The following applies: for inhibition at 0.1 µM: % inhibition at 100 nM analog, 10 μM S(-)nicotine, rat striatal slices, read-out: Inhibition of Nicotine-evoked [^3H]DA release. In kind it is cell-based. As to the method: Rat striatal slices (500 μm thickness, 6 mg wet weight) were incubated for 30 minutes in Krebs buffer (118 mM NaCl, 4.7 mM KCl, 1.2 mM MgCl2, 1.0 mM NaH2PO4, 1.3 mM CaCl2, 11.1 mM glucose, 25 mM NaHCO3, 0.11 mM L-ascorbic acid, and 0.004 mM disodium EDTA; pH 7.4, and saturated with 95% O2/5% CO2) in a metabolic shaker at 34° C. Slices were rinsed with 15 mL of fresh buffer and incubated for an additional 30 minutes in fresh buffer containing 0.1 μM [^3H]dopamine (DA; 6 slices/3 mL). Subsequently, slices were rinsed with 15 mL of fresh buffer and each slice transferred to a superfusion chamber. Slices were superfused (0.6 mL/min) for 60 minutes with Krebs buffer containing nomifensine (10 μM) and pargyline (10 μM) and maintained at 34° C., pH 7.4, with continual aeration (95% O2/5% CO2). Two 4-minute samples (2.4 mL each) were collected to determine basal outflow of [^3H]DA. Slices were superfused for 36 min following addition of the analogs to the superfusion buffer after the collection of the second sample and nine 4-minute samples were collected. For initial probe assays, the concentration of analog was 100 nM. For concentration-response studies, the concentration of analog varied from 1 nM to 10 μM, and the effect of each concentration was determined using striatal slices obtained from an individual animal (repeated measures design). Subsequently, S(−)nicotine (10 μM) was added to the buffer and nine additional 4-minute samples were collected. At the end of the experiment, each slice was solubilized and the [^3H] content of the tissue determined.
Radioactivity in the superfusate and tissue samples was determined by liquid scintillation spectroscopy. Fractional release for tritium collected in each sample was divided by the total tritium present in the tissue at the time of sample collection and was expressed as a percentage of total tritium. Basal [^3H]outflow was calculated from the average of the tritium collected in the two […] samples just before addition of the analog. The sum of the increase in collected tritium resulting from either exposure to the test compound or exposure to S(−)nicotine in the absence and presence of the test compound equaled total [^3H]overflow. [^3H]Overflow was calculated by subtracting the [^3H]outflow during an equivalent period of prestimulation from the values in samples collected during and after drug exposure. Inasmuch as the radiolabelled compounds were not separated and identified, the tritium collected in superfusate is referred to as either [^3H]outflow or [^3H]overflow, rather than as [^3H]DA. [^3H]Overflow primarily represents [^3H]DA in the presence of nomifensine and pargyline in the superfusion buffer. […]
Analogs were also evaluated for their ability to inhibit NIC evoked [^3H]DA release. Antagonist activity was evaluated by comparing the NIC-evoked [^3H]overflow in the absence and presence of the analogs (see Table 1). […] Data are expressed as M±SEM. Control represents absence of compound. N=4/analog, *p<0.05
as §4
^bIC50 from full concentration response assay; data from 4-5 independent experiments, each performed in duplicate.

Assay [4] addresses T2, α7-type neuronal nicotinic acetylcholine receptors. The assay is described as follows: Inhibition of [^3H]methyllycaconitine (MLA) binding to rat brain membranes.

From US8629163B2, “Tetrakis-quaternary ammonium salts and methods for modulating neuronal nicotinic acteylcholine receptors” (University of Kentucky Research Foundation, priority 2007, dated 2014) come the findings set out here.

As a reminder, the inhibition is how much of the control response was suppressed. The Ki is the dissociation constant of the complex between target and ligand, obtained from inhibition or displacement. The low end stands for a stronger hold on the target, the high end for a looser hold on the target. The IC50 is the point on the concentration scale where inhibition reaches its midpoint.

T2 sequence (Q05941 23-502): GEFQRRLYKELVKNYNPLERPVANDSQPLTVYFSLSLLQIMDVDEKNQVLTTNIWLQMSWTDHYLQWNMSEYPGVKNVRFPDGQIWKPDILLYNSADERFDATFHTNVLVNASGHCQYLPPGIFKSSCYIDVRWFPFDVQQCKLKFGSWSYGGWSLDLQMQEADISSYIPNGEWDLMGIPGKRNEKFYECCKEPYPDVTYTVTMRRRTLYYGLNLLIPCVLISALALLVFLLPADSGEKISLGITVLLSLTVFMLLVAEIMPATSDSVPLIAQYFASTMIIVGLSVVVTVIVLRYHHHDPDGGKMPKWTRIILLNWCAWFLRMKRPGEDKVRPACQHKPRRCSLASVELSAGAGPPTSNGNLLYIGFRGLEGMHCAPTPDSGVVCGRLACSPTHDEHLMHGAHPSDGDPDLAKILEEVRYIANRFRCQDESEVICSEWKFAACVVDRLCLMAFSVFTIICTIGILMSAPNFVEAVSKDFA
T1 sequence (P09483 31-630): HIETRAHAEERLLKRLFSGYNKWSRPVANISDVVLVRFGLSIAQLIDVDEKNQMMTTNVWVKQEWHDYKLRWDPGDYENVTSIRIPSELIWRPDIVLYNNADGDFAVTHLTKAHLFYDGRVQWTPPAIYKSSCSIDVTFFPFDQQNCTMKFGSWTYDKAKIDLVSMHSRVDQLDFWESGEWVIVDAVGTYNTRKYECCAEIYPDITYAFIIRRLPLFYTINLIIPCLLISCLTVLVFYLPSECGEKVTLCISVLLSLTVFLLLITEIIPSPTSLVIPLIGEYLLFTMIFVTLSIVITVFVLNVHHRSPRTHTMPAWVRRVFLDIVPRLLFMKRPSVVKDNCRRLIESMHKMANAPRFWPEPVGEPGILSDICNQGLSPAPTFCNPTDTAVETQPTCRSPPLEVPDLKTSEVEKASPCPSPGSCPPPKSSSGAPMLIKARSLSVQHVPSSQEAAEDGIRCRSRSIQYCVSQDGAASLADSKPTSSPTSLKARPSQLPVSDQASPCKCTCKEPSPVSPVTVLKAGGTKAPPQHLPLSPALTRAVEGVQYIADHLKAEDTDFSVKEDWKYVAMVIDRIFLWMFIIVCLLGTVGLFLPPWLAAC
T1 sequence (P12390 25-500): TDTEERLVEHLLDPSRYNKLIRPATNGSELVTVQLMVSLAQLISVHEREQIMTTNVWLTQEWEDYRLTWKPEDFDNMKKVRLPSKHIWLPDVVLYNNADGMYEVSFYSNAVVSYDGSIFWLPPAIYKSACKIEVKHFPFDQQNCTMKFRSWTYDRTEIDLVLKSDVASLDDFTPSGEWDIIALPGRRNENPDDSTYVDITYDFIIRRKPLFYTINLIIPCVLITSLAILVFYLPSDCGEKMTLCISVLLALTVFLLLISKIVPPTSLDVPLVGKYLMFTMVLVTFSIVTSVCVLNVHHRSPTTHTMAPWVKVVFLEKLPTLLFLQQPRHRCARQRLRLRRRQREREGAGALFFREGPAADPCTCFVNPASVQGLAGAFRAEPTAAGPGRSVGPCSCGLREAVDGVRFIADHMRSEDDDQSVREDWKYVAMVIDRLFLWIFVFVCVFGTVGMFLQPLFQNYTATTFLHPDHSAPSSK

As for `Cc1cc[n+](CCCCCc2cc(CCCCC[n+]3ccc(C)c(C)c3)c(CCCCC[n+]3ccc(C)c(C)c3)cc2CCCCC[n+]2ccc(C)c(C)c2)cc1C.[Br-].[Br-].[Br-].[Br-]`, the “Inhibition of [^3H]Nicotine binding” value in assay [1] is 0.5 ± 0.5%. Besides, the “Inhibition of [^3H]MLA binding” value in assay [2] stood at 18 ± 10%. The inhibition at 0.1 µM in assay [3] turned out to be 36 ± 11%.
For the molecule `Cc1cc(C)c[n+](CCCCCc2cc(CCCCC[n+]3cc(C)cc(C)c3)c(CCCCC[n+]3cc(C)cc(C)c3)cc2CCCCC[n+]2cc(C)cc(C)c2)c1.[Br-].[Br-].[Br-].[Br-]`, the “Inhibition of [^3H]Nicotine binding” value in assay [1] was 3.7 ± 3.7%. Moreover, the “Inhibition of [^3H]MLA binding” value in assay [2] is 15 ± 8%. Further, the inhibition at 0.1 µM in assay [3] came out at 45 ± 14%.
Molecule α-bungarotoxin had a Ki in assay [4] of 0.0286 ± 0.0054 µM.
As to `OCCCc1ccc[n+](CCCCCc2cc(CCCCC[n+]3cccc(CCCO)c3)c(CCCCC[n+]3cccc(CCCO)c3)cc2CCCCC[n+]2cccc(CCCO)c2)c1.[Br-].[Br-].[Br-].[Br-]`, the “Inhibition of [^3H]Nicotine binding” value in assay [1] is given as 9.6 ± 5.2%. For the same molecule, the “Inhibition of [^3H]MLA binding” value in assay [2] is 20 ± 13%. In assay [3], the inhibition at 0.1 µM stood at 64 ± 15%. Besides, the IC50 in assay [3] (Rattus norvegicus, full concentration response assay, 4-5 independent experiments in duplicate, 10 μM nicotine, read-out: IC50, inhibition of nicotine-evoked [^3H]DA release (converted)) was 0.00338 µM.
On to `[Br-].[Br-].[Br-].[Br-].c1ccc(-c2ccc[n+](CCCCCc3cc(CCCCC[n+]4cccc(-c5ccccc5)c4)c(CCCCC[n+]4cccc(-c5ccccc5)c4)cc3CCCCC[n+]3cccc(-c4ccccc4)c3)c2)cc1`, for which the “Inhibition of [^3H]Nicotine binding” value in assay [1] is given as 6.6 ± 4.5%. Also, the “Inhibition of [^3H]MLA binding” value in assay [2] came to 33 ± 17%. In addition, in assay [3], the inhibition at 0.1 µM turned out to be 19 ± 15%.
The corresponding values for `Cc1cc[n+](CCCCCc2cc(CCCCC[n+]3ccc(C)cc3)c(CCCCC[n+]3ccc(C)cc3)cc2CCCCC[n+]2ccc(C)cc2)cc1.[Br-].[Br-].[Br-].[Br-]` are 12 ± 8.3%, 8.0 ± 5.3% and 46 ± 5%.
Consider `Cc1cc(C)c[n+](CCCC#Cc2cc(C#CCCC[n+]3cc(C)cc(C)c3)c(C#CCCC[n+]3cc(C)cc(C)c3)cc2C#CCCC[n+]2cc(C)cc(C)c2)c1.[Br-].[Br-].[Br-].[Br-]`, for which the “Inhibition of [^3H]Nicotine binding” value in assay [1] is 0 ± 05%. Also, the “Inhibition of [^3H]MLA binding” value in assay [2] is on record as 3.9 ± 3.9%. The inhibition at 0.1 µM in assay [3] amounted to 12 ± 5%.
In the case of `C(#Cc1cc(C#CCCC[n+]2ccc3ccccc3c2)c(C#CCCC[n+]2ccc3ccccc3c2)cc1C#CCCC[n+]1ccc2ccccc2c1)CCC[n+]1ccc2ccccc2c1.[Br-].[Br-].[Br-].[Br-]`, in assay [1], the “Inhibition of [^3H]Nicotine binding” value was determined as 0 ± 0%. For the same molecule, the “Inhibition of [^3H]MLA binding” value in assay [2] amounted to 4.9 ± 3.8%. Also, the inhibition at 0.1 µM in assay [3] worked out at 39 ± 17%.
For `C(#Cc1cc(C#CCCC[n+]2cccc(-c3ccccc3)c2)c(C#CCCC[n+]2cccc(-c3ccccc3)c2)cc1C#CCCC[n+]1cccc(-c2ccccc2)c1)CCC[n+]1cccc(-c2ccccc2)c1.[Br-].[Br-].[Br-].[Br-]` the same measures were 0.3 ± 0.3%, 53 ± 0.8% and 37 ± 15%.
As for `CN1CCCC1c1ccc[n+](CCCC#Cc2cc(C#CCCC[n+]3cccc(C4CCCN4C)c3)c(C#CCCC[n+]3cccc(C4CCCN4C)c3)cc2C#CCCC[n+]2cccc(C3CCCN3C)c2)c1.[Br-].[Br-].[Br-].[Br-]` (centres unmarked), the “Inhibition of [^3H]Nicotine binding” value in assay [1] amounted to 38 ± 7.4%. For the same molecule, the “Inhibition of [^3H]MLA binding” value in assay [2] is 15 ± 2.0%. In assay [3], the inhibition at 0.1 µM came out at 31 ± 13%.
